Among the data in patent US5614550A, “Amide and urea derivatives having anti-hypercholesteremic activity, their preparation and their therapeutic uses” (Sankyo Company, Limited, priority 1993, dated 1997) are inhibition values, retold here.

In the assay the target is T1, ACAT in M.phi. (acyl-CoA: cholesterol acyl transferase) (Mus musculus, UniProt Q61263).
T1 construct: endogenous in cells; host or cells: primary adherent peritoneal macrophages from unstimulated female DDY mice
T1 sequence (Q61263 1-540): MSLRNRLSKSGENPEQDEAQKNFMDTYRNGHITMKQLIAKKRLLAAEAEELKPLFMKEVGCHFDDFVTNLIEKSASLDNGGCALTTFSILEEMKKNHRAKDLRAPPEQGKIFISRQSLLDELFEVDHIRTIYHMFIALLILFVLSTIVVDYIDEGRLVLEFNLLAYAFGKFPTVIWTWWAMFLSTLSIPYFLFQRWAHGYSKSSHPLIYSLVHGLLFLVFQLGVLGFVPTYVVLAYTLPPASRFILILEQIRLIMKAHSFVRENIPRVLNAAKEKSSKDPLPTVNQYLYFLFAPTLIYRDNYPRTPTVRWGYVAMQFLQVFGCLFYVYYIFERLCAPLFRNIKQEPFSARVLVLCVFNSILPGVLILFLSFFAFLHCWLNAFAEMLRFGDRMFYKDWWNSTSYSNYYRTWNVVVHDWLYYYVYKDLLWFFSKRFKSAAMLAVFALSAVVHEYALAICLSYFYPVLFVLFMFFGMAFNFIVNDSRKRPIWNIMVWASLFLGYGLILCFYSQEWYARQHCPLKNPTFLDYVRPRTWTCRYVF
Kind of assay: Inhibition of ACAT in mouse macrophages (M.phi.), cholesterol [14C]oleate formation. Format: cell-based. The arrangement: dose or concentration left out as unconfirmed. The settings on record: mouse peritoneal macrophages, beta-VLDL, 37° C., 3 hours. As to the method: Blood was obtained [using the anticoagulant ethylene diamine tetraacetic acid (5 mM)] from Japanese White rabbits which had been fed a 2% w/w cholesterol diet for 2 weeks and then fasted overnight prior to removing the blood. β-VLDL (d<1.006 g/ml) was isolated by ultracentrifugation from the plasma according to the method of Hatch and Lees [Hatch, F. T. and Lees, R. S., Adv. Lipid Res., 6, 1-68 (1968)] and dialyzed against 10 mM of a sodium phosphate buffer (pH 7.4) containing 150 mM sodium chloride at 4° C.
Peritoneal cells were harvested from unstimulated female DDY mice (body weight 20-30 g) in phosphate buffer saline (PBS) as described by Edelson and Cohn [Edelson, P. J. and Cohn, Z. A., 1976, IN VITRO Methods in Cell-Mediated and Tumor Immunity, eds, Bloon, B. R. and DAvid, J. R., (Academic, New York), 333-340.]. The fluid from the mice was pooled and the cells were collected by centrifugation at 400× g, for 10 minutes at 4° C., and washed once with PBS. The cells were resuspended in Dulbecco's modified Eagle's medium (DMEM) containing 10% (vol/vol) fetal calf serum (FCS), penicillin (100 units/ml), and streptomycin (100 μg/ml) at a final concentration of 3×10^6 cells per ml. Aliquots (1 ml) of this cell suspension were dispersed onto plastic Petri dishes (35×10 mm) and then incubated in a CO2 incubator (5% CO2 /95% air) at 37° C. for 2 hours. Each dish was washed twice with PBS without serum to remove nonadherent cells. The cells were washed twice with 2 ml of PBS and used for the experiment.
Inhibition of ACAT in M.phi. was determined according to the method described by Brown et al. [Brown, M. S., Goldstein J. L., Krieger, M., Ho, Y. K. and Anderson, R. G. W. (1979) J. Cell Biol., 82, 597-613.]. Cholesterol reacylation was initiated by adding β-VLDL (final concentration 50 μg/ml cholesterol), [^14 C]oleate-albumin complex (final concentrations: 0.2 mM oleate and 0.6 mg/ml albumin) and a test compound dissolved in ethanol into the M.phi. monolayer, and the preparation was incubated at 37° C. for 3 hours in a CO2 incubator. Cells were washed three times with PBS and cellular lipid was extracted with 1 ml hexane/isopropanol (3:2, vol/vol). A lipid extract was evaporated in a stream of nitrogen. Cholesterol [^14 C]oleated was seperated by thin layer chromatography through silica gel using a 85:15:1 by volume mixture of hexane, diethyl ether and acetic acid as developing solvents. The ACAT activity in M.phi. was determined by measuring the radioactivity and an inhibition rate (%) was calculated by comparing a control activity with those of the test compound at given concentrations.
By inhibition is commonly meant the share of the control response that was lost under treatment. In the case of `CC(C)c1cccc(C(C)C)c1NC(=O)CC1c2ccccc2Oc2ccccc21` [Compound A, reference compound], the inhibition worked out at 51%.

As for `CC(C)(C)c1ccc(CCC(O)CCC2CCCCC2)cc1NC(=O)CC1c2ccccc2Oc2ccccc21` (centres unmarked) [Example 26, N-[2-t-Butyl-5-(5-cyclohexyl-3-hydroxypentyl)phenyl]-2-(9H-xanthen-9-yl)acetamide], the inhibition amounted to 77%.

Molecule `CC(C)(C)c1ccc(CCC(O)C2CCCCCC2)cc1NC(=O)CC1c2ccccc2Oc2ccccc21` (centres unmarked) [Example 98, N-[2-t-Butyl-5-(3-cycloheptyl-3-hydroxypropyl)phenyl]-2-(9H-xanthen-9-yl)acetamide] showed an inhibition of 81%.

For `CC(C)(C)c1ccc(CCC(=O)CC2CCCCC2)cc1NC(=O)CC1c2ccccc2Oc2ccccc21` [Example 13, N-[2-t-Butyl-5-(4-cyclohexyl-3-oxobutyl)phenyl]-2-(9H-xanthen-9-yl)acetamide], the inhibition was found to be 80%.

Molecule `CC(C)(C)c1ccc(CCC(O)CCCCC2CCCCC2)cc1NC(=O)CC1c2ccccc2Oc2ccccc21` (centres unmarked) [Example 44, N-[2-t-Butyl-5-(7-cyclohexyl-3-hydroxyheptyl)phenyl]-2-(9H-xanthen-9-yl)acetamide] registered an inhibition of 89%.

As to `CC(C)(C)c1ccc(CCC(O)COCCC2CCCCC2)cc1NC(=O)CC1c2ccccc2Oc2ccccc21` (centres unmarked) [Example 219, N-{2-t-Butyl-5-[4-(2-cyclohexylethoxy)-3-hydroxybutyl]phenyl}-2-(9H-xanthen-9-yl)acetamide], the inhibition is 86%.

The molecule `CC(C)(C)c1ccc(CCC(O)CCOC2CCCCC2)cc1NC(=O)CC1c2ccccc2Oc2ccccc21` (centres unmarked) [Example 217, N-[2-t-Butyl-5-(5-cyclohexyloxy-3-hydroxypentyl)phenyl]-2-(9H-xanthen-9-yl)acetamide] showed an inhibition of 74%.

`CC(C)c1cccc(CCC(O)CCCC2CCCCC2)c1NC(=O)CC1c2ccccc2Oc2ccccc21` (centres unmarked) [Example 125, N-[2-Isopropyl-6-(6-cyclohexyl-3-hydroxyhexyl)phenyl]-2-(9H-xanthen-9-yl)acetamide]: the inhibition came to 85%.
